Experimental data published in publication PMC2751796 (Pharmacology & therapeutics, 2009).
Read-outs that look alike come from different tables or passages of the source.

Experiments:
[1] = tested on: MRPs, organic anion transporters; conditions: cited from earlier work
rOAT3 = conditions: inhibition of rOAT3-mediated 6-mercaptopurine transport; ref Mori et al., 2004; cited from earlier work
[2] = ref Heideman et al., 1986; cited from earlier work
[3] = cited from earlier work
Mrp2 = conditions: ref Potschka et al., 2003; cited from earlier work
hPXR = conditions: ref Bauer et al., 2006, cited from earlier work
P-gp [4] = conditions: ref de Vries et al., 2007; cited from earlier work
P-gp [5] = conditions: AUC, cited from earlier work
Bcrp [6] = conditions: ref de Vries et al., 2007; cited from earlier work
P-gp and BCRP = conditions: ref de Vries et al., 2007; cited from earlier work
Bcrp [7] = conditions: cited from earlier work
[8] = mouse, in vivo; cited from earlier work
P-gp [9] = tested on: P-gp; set-up: species or system human; conditions: at 5.6 μM cyclosporine blood concentration
P-gp [10] = conditions: ref Passchier et al., 2003; cited from earlier work
P-gp [11] = conditions: rhesus monkey, 8 mg/kg; ref Zoghbi et al., 2008; cited from earlier work
P-gp [12] = conditions: cited from earlier work
Ent1 = conditions: mice; ref Lepist et al., 2008; cited from earlier work
[13] = mice, 50 mg/kg, PO; ref Hubensack et al., 2008; cited from earlier work
P-gp [14] = conditions: 150 mg, iv; ref Kurnik et al., 2008; cited from earlier work
[15] = highest dose; ref Bankstahl et al., 2008; cited from earlier work
[16] = intraventricularly injected, ref Bode et al., 1980
[17] = Elacridar (50 and 100 mg/kg, PO), ref de Vries et al., 2007

Sc1ncnc2nc[nH]c12 [6-mercaptopurine]
Increase of brain-to-plasma concentration ratio with probenecid in rats ([1]; ref Deguchi et al., 2000): up to 4.4 fold

CN(Cc1cnc2nc(N)nc(N)c2n1)c1ccc(C(=O)N[C@@H](CCC(=O)O)C(=O)O)cc1 [Methotrexate]
Ki relative to estimated brain concentration in patients receiving chemotherapy (rOAT3): 17.5 fold
CNS distribution in untreated subjects (ventricular CSF / plasma AUC ratio) [2]: 0.02 (ventricular CSF / plasma AUC ratio)
Increase of CSF concentrations by probenecid ([3]; 4 patients, ref Howell et al., 1979): 2.8 to 4.2 fold
Effect of probenecid 1250 mg/m^2 daily on efflux kinetics [3, 16]: did not change
Extension of terminal half life (CSF) by probenecid 2500 mg/m^2 [3, 16]: up to 53%
CSF concentrations with vincristine vs. monotherapy ([3]; patient with lymphoma, ref Tejada & Zubrod, 1979): 2.5 fold
Effect of vindesine on CSF concentration ([3]; ref Tubiana et al., 1985): did not affect

O=C1NC(=O)C(c2ccccc2)(c2ccccc2)N1 [Phenytoin]
Extracellular concentrations and anticonvulsant activity vs. rats that do not lack Mrp2 (Mrp2): two-fold greater
Enhancement of brain penetration and anticonvulsant activity by probenecid ([1]; ref Potschka et al., 2003): up to two-fold

CO[C@H]1/C=C/O[C@@]2(C)Oc3c(C)c(O)c4c(O)c(c(/C=N/N5CCN(C)CC5)c(O)c4c3C2=O)NC(=O)/C(C)=C\C=C\[C@H](C)[C@H](O)[C@@H](C)[C@@H](O)[C@@H](C)[C@H](OC(C)=O)[C@@H]1C [Rifampin]
Predicted average steady state unbound plasma concentration (hPXR; 50 mg/kg, oral, for 3 days): 0.34 µg/mL

CC[C@@]1(O)C(=O)OCc2c1cc1n(c2=O)Cc2cc3c(CN(C)C)c(O)ccc3nc2-1 [Topotecan]
Brain-to-plasma AUC ratio in Mdr1a/b-/- mice compared to WT controls (P-gp [4]): two times higher
Fold change in brain uptake ratio in inhibitor-treated vs. control mice (P-gp [5]; [17]): 1.6 fold
Fold change in brain uptake ratio in inhibitor-treated vs. control mice (value corrected for drug in vasculature) (P-gp [5]; [17]): 1.7 fold
Fold change in brain uptake ratio in inhibitor-treated vs. control mice (P-gp [5]; Gefitinib (200 mg/kg, PO), microdialysis, ref Zhuang et al., 2006): 1.7 ^b, AUC fold
Brain-to-plasma AUC ratio in Bcrp-/- mice compared to WT controls (Bcrp [6]): not different
Increase of brain-to-plasma AUC ratio in Mdr1a/b-/-/Bcrp-/- mice (P-gp and BCRP): 3.2 fold
Increase of oral bioavailability with elacridar in Mdr1a/b-/- mice (Bcrp [7]; ref Jonker et al., 2000): more than 6 fold
Increase of placental transfer with elacridar in Mdr1a/b-/- mice (Bcrp [7]; ref Jonker et al., 2000): > 2 fold
Increase of brain distribution with elacridar in Mdr1a/b-/- mice (Bcrp [7]; ref de Vries et al., 2007): 1.6 fold

CCC1(c2ccccc2)C(=O)NC(=O)NC1=O [Phenobarbital]
Brain uptake ratio in WT, untreated mice [8]: ∼ 0.27-0.4

CN([11CH3])C(=O)C(CCN1CCC(O)(c2ccc(Cl)cc2)CC1)(c1ccccc1)c1ccccc1 [[^11C]-Loperamide]
Predicted increase in CNS distribution in humans (P-gp [9]): 56-412%
Increase in brain radioactivity with cyclosporine in pigs (P-gp [10]): up to 7 fold
Increase in plasma radioactivity with DCPQ (P-gp [11]): 16%
Increase in distribution of radioactivity at the human BBB on P-gp inhibition (P-gp [12]; data obtained so far): ~100%
Increase of brain [^11C]-loperamide with cyclosporine in humans (P-gp [12]; intravenous infusion 10 mg/kg/2 hr, ref Passchier et al., 2008): ~110%

OC[C@H]1O[C@@H](n2cnc3c(N[C@@H]4CCOC4)ncnc32)[C@H](O)[C@@H]1O [tecadenoson]
Decrease in brain AUC with nitrobenzyl-mercaptopurine ribonucleoside (Ent1): 2.5 fold

CCC(=O)C(CC(C)N(C)C)(c1ccccc1)c1ccccc1 (centres unmarked) [methadone]
Decrease of antinociceptive effect after rifampin (hPXR; hPXR transgenic mice, vs. vehicle): 70%

COc1cc2c(cc1OC)CN(CCc1ccc(NC(=O)c3cc(OC)c(OC)cc3NC(=O)c3cnc4ccccc4c3)cc1)CC2 [Tariquidar]
Inhibitor concentration (brain) [13]: 3-9 nmol/g (brain) (∼2-fold greater in plasma)
Inhibition of lymphocyte P-gp activity (P-gp [14]): completely inhibited
Tariquidar blood concentration [15]: 1402 ng/mL
Tariquidar brain concentration [15]: 4131 ng/mL
